Patent US20110111061A1, “Compositions and Methods for the Treatment of Skeletal Metastatic Lesions and Fractures” (priority 2008, published 2011)

Experiment: Adriamycin elution from bone cement in vitro
Assay type: physicochemical
Conditions: one or two vials (10 mg adriamycin each) added to a packet of PMMA bone cement (22.5 g powder + 9 ml liquid monomer)
Procedure: […] […] They were mixed thoroughly to ensure there are no large adriamycin flakes. […] One gram of this composite elutes 340 micrograms of adriamycin within 24 hours in vitro. The prepared bone cement drug powder was then loaded in sterile syringes (2 g/syringe). To prepare the bone cement putty for implantation and in situ polymerization, 1 ml of Confidence™ monomer was added to this powder and mixed thoroughly 5 minutes prior to implantation.

COc1cccc2c1C(=O)c1c(O)c3c(c(O)c1C2=O)C[C@@](O)(C(=O)CO)C[C@@H]3O[C@H]1C[C@H](N)[C@H](O)[C@H](C)O1 [adriamycin]
elution of adriamycin from PMMA bone cement without filler: negligible elution
